{"source": "paper PMC6934184", "about": "“Selective DNA-PKcs inhibition extends the therapeutic index of localized radiotherapy and chemotherapy” (The Journal of Clinical Investigation, 2019)", "target": "T1, LIMK1 (Homo sapiens, UniProt P53667)", "T1 construct": "purchased Thermo Fisher Scientific (Life Technologies) SelectScreen", "T1 sequence (P53667 whole entry)": "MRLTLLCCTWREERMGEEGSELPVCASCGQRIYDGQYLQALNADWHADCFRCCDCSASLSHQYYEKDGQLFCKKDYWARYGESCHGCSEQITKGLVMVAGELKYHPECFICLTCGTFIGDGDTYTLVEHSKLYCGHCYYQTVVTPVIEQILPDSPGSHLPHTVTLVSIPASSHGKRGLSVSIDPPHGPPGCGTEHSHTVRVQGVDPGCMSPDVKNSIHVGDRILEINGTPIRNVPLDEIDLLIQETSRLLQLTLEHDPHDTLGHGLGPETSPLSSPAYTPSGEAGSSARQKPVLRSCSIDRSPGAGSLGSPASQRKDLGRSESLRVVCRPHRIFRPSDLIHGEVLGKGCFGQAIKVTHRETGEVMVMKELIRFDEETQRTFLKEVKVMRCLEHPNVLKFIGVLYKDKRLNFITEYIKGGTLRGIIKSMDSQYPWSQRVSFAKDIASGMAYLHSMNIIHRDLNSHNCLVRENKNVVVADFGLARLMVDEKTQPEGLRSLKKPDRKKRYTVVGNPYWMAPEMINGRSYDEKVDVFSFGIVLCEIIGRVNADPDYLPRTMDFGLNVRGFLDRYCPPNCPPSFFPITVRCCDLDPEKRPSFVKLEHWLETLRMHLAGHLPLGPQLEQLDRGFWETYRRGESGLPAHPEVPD", "experiment": "SelectScreen LanthaScreen", "format": "binding", "settings": "read-out: % displacement", "outline": "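Percent values come from Thermo SelectScreen profiling of NU5455, combining activity and binding assays. CSF1R was run in Z'LYTE format at Km app ATP, and CAMK1 in Adapta format with ATP listed at 10.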"}
{"smiles": "CN(C(=O)CN1CCOCC1)c1ccc2sc3c(-c4cccc5c(=O)cc(N6CC7CCC(C6)O7)oc45)cccc3c2c1", "note": "[NU5455]", "values": [{"measurement": "inhibition at 1 µM", "result": -1.7, "unit": "%"}]}
